Assay results reported in patent US9283222B2 (priority 2006, dated 2016).
Where two headings read alike, the source gives them in different places.

Target: Recombinant Human Poly(ADP-Ribose) Polymerase (PARP), PARP-1 (Homo sapiens (Human), UniProt P09874)
Settings: read-out: PARP-1 (Ki)
[1] = Table 1, text calls the values EC50s

Recombinant Human Poly(ADP-Ribose) Polymerase (PARP), PARP-1, sequence (P09874 whole entry): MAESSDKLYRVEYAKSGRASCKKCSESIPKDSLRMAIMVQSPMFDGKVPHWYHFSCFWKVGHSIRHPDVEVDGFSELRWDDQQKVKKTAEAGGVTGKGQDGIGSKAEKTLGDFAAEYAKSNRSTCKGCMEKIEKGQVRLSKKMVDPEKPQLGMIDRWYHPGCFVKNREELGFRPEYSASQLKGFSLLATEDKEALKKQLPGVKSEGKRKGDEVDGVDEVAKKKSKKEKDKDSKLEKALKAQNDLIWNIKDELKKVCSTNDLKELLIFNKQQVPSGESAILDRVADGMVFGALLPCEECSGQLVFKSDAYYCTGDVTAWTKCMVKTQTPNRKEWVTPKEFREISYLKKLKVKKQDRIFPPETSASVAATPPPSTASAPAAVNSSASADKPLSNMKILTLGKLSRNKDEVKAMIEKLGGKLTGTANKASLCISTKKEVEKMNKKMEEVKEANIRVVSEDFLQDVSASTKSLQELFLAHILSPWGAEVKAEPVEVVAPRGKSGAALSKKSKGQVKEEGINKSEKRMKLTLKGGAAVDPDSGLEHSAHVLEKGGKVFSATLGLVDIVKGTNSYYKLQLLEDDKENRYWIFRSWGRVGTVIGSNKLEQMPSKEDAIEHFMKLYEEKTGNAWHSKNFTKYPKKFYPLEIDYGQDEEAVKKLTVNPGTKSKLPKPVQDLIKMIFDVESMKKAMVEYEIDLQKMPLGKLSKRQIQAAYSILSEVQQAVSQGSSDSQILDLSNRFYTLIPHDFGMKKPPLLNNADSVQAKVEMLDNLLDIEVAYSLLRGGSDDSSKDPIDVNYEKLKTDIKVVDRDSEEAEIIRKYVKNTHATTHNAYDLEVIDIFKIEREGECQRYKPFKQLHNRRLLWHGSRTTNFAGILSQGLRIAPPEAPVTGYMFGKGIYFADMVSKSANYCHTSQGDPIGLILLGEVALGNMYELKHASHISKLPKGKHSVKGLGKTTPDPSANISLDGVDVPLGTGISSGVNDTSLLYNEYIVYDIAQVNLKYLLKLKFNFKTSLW

| SMILES | Ki [1] [nM] | other results |
| --- | --- | --- |
| O=C1CCN1c1cc(-c2n[nH]c(=O)c3c2CCCC3)ccc1F | – | Ki (Table 2, A2 is C1-alkyl versus no A2 (bond)): 291 nM |
| O=C(c1cc(Cc2n[nH]c(=O)c3c2NCCC3)ccc1F)N1CCN(C(=O)N2CCOCC2)CC1 [Example 473, 8-(4-fluoro-3-((4-(morpholin-4-ylcarbonyl)piperazin-1-yl)carbonyl)benzyl)-2,3,4,6-tetrahydropyrido(2,3-d)pyridazin-5(1H)-one] | – | Ki: 2 nM |
| CO[C@@H](C(=O)Nc1cccc(Cc2n[nH]c(=O)c3c2CCCC3)c1)c1ccccc1 [Example 151, (2R)-2-methoxy-N-(3-((4-oxo-3,4,5,6,7,8-hexahydrophthalazin-1-yl)methyl)phenyl)-2-phenylacetamide] | 531 | – |
| Cc1c(F)cccc1C(=O)Nc1cccc(Cc2n[nH]c(=O)c3c2CCCC3)c1 [Example 178, 3-fluoro-2-methyl-N-(3-((4-oxo-3,4,5,6,7,8-hexahydrophthalazin-1-yl)methyl)phenyl)benzamide] | 462 | – |
| O=C(c1cccc(Cc2n[nH]c(=O)c3c2CCCC3)c1)N1CCN(c2ccccn2)CC1 [Example 441, 4-(3-((4-pyridin-2-ylpiperazin-1-yl)carbonyl)benzyl)-5,6,7,8-tetrahydrophthalazin-1(2H)-one] | 3 | – |
| CC1CCCN1C(=O)c1cccc(Cc2n[nH]c(=O)c3c2CCCC3)c1 (stereo not drawn) [Example 53, 4-(3-((2-methylpyrrolidin-1-yl)carbonyl)benzyl)-5,6,7,8-tetrahydrophthalazin-1(2H)-one] | 10 | – |
| O=C(c1cc(Cc2n[nH]c(=O)c3c2CCCC3)ccc1F)N1CCN(c2ncccn2)CC1 [Example 490, 4-(4-fluoro-3-((4-pyrimidin-2-ylpiperazin-1-yl)carbonyl)benzyl)-5,6,7,8-tetrahydrophthalazin-1(2H)-one] | 0.7 | – |
| CS(=O)(=O)c1cccc(-c2cc(Cc3n[nH]c(=O)c4c3CCCC4)ccc2F)c1 [Example 249, 4-((6-fluoro-3′-(methylsulfonyl)-1,1′-biphenyl-3-yl)methyl)-5,6,7,8-tetrahydrophthalazin-1(2H)-one] | 85 | – |
| CN(C(=O)C1CCC1)c1cc(Cc2n[nH]c(=O)c3c2CCCC3)ccc1F [Example 753, N-{2-fluoro-5-[(4-oxo-3,4,5,6,7,8-hexahydrophthalazin-1-yl)methyl]phenyl}-N-methylcyclobutanecarboxamide] | 92 | – |
| CN1CCN(C(=O)Nc2cc(Cc3n[nH]c(=O)c4c3CCCC4)ccc2F)CC1 [Example 584, N-{2-fluoro-5-[(4-oxo-3,4,5,6,7,8-hexahydrophthalazin-1-yl)methyl]phenyl}-4-methylpiperazine-1-carboxamide] | 68 | – |
| CC1CCCN1Cc1cccc(-c2cccc(Cc3n[nH]c(=O)c4c3CCCC4)c2)c1 (stereo not drawn) [Example 129, 4-((3′-((2-methylpyrrolidin-1-yl)methyl)-1,1′-biphenyl-3-yl)methyl)-5,6,7,8-tetrahydrophthalazin-1(2H)-one] | 41 | – |
| O=C(NC1CCCNC1)c1cccc(Cc2n[nH]c(=O)c3c2CCCC3)c1 (stereo not drawn) [Example 57, 3-((4-oxo-3,4,5,6,7,8-hexahydrophthalazin-1-yl)methyl)-N-piperidin-3-ylbenzamide] | 60 | – |
| CN1CC(NC(=O)c2cccc(Cc3n[nH]c(=O)c4c3CCCC4)c2)C1 [Example 65, N-(1-methylazetidin-3-yl)-3-((4-oxo-3,4,5,6,7,8-hexahydrophthalazin-1-yl)methyl)benzamide] | 82 | – |
| O=C(Nc1ccc(Cc2n[nH]c(=O)c3c2CCCC3)cn1)c1ccncc1 [Example 107, N-(5-((4-oxo-3,4,5,6,7,8-hexahydrophthalazin-1-yl)methyl)pyridin-2-yl)isonicotinamide] | 216 | – |
| Cc1cc(NC(=O)c2cccc(Cc3n[nH]c(=O)c4c3CCCC4)c2)ccc1F [Example 341, N-(4-fluoro-3-methylphenyl)-3-((4-oxo-3,4,5,6,7,8-hexahydrophthalazin-1-yl)methyl)benzamide] | 154 | – |
| O=C(Nc1cccc(Cc2n[nH]c(=O)c3c2CCCC3)c1)C(c1ccccc1)c1ccccc1 [Example 174, N-(3-((4-oxo-3,4,5,6,7,8-hexahydrophthalazin-1-yl)methyl)phenyl)-2,2-diphenylacetamide] | 655 | – |
| O=C(NCCc1cccc(F)c1)c1cccc(Cc2n[nH]c(=O)c3c2CCCC3)c1 [Example 386, N-(2-(3-fluorophenyl)ethyl)-3-((4-oxo-3,4,5,6,7,8-hexahydrophthalazin-1-yl)methyl)benzamide] | 33 | – |
| COc1ccc(NC(C)=O)cc1NC(=O)c1cccc(Cc2n[nH]c(=O)c3c2CCCC3)c1 [Example 357, N-(5-(acetylamino)-2-methoxyphenyl)-3-((4-oxo-3,4,5,6,7,8-hexahydrophthalazin-1-yl)methyl)benzamide] | 402 | – |

The remaining molecules from weak to strong by Ki [1], led by results:

| Ki [1] [nM] | SMILES | other results |
| --- | --- | --- |
| 7 | O=C(Nc1cccc(Cc2n[nH]c(=O)c3c2CCCC3)c1)c1ccc(O)nc1 [Example 214, 6-hydroxy-N-(3-((4-oxo-3,4,5,6,7,8-hexahydrophthalazin-1-yl)methyl)phenyl)nicotinamide] | – |
| 5 | CN(C(=O)c1cc(Cc2n[nH]c(=O)c3c2NCCC3)ccc1F)C1CCN(C(=O)[C@@H]2CSCN2)CC1 [Example 716, 2-fluoro-N-methyl-5-[(5-oxo-1,2,3,4,5,6-hexahydropyrido[2,3-d]pyridazin-8-yl)methyl]-N-{1-[(4R)-1,3-thiazolidin-4-ylcarbonyl]piperidin-4-yl}benzamide] | – |
| 4 | O=C(c1cc(Cc2n[nH]c(=O)c3c2NCCC3)ccc1F)N1CCN(CCO)CC1 [Example 535, 8-(4-fluoro-3-{[4-(2-hydroxyethyl)piperazin-1-yl]carbonyl}benzyl)-2,3,4,6-tetrahydropyrido[2,3-d]pyridazin-5(1H)-one] | – |
| 3 | O=c1[nH]nc(Cc2ccc(F)c(N3CCCS3(=O)=O)c2)c2c1CCCC2 [Example 305, 4-(3-(1,1-dioxidoisothiazolidin-2-yl)-4-fluorobenzyl)-5,6,7,8-tetrahydrophthalazin-1(2H)-one] | – |
| 2.7 | NC(=O)C1CCN(C(=O)c2cc(Cc3n[nH]c(=O)c4c3CCCC4)ccc2F)CC1 [Example 498, 1-{2-fluoro-5-[(4-oxo-3,4,5,6,7,8-hexahydrophthalazin-1-yl)methyl]benzoyl}piperidine-4-carboxamide] | – |
| 2 | O=C(c1cc(Cc2n[nH]c(=O)c3c2CCCC3)ccc1F)N1CCN(C2CCCC2)CC1 [Example 575, 4-{3-[(4-cyclopentylpiperazin-1-yl)carbonyl]-4-fluorobenzyl}-5,6,7,8-tetrahydrophthalazin-1(2H)-one] | – |
| 1.9 | C[C@@H]1CN(C(=O)c2ccccc2)CCN1C(=O)c1cc(Cc2n[nH]c(=O)c3c2CCCC3)ccc1F [Example 668, 4-(3-{[(2R)-4-benzoyl-2-methylpiperazin-1-yl]carbonyl}-4-fluorobenzyl)-5,6,7,8-tetrahydrophthalazin-1(2H)-one] | – |
| 1.8 | Cn1cnc(C(=O)N2CCCN(C(=O)c3cc(Cc4n[nH]c(=O)c5c4CCCC5)ccc3F)CC2)c1 [Example 636, 4-[4-fluoro-3-({4-[(1-methyl-1H-imidazol-4-yl)carbonyl]-1,4-diazepan-1-yl}carbonyl)benzyl]-5,6,7,8-tetrahydrophthalazin-1(2H)-one] | – |
| 1.8 | O=C(NC1CCN(C(=O)c2ccc3[nH]cnc3c2)CC1)c1cc(Cc2n[nH]c(=O)c3c2NCCC3)ccc1F [Example 713, N-[1-(1H-benzimidazol-5-ylcarbonyl)piperidin-4-yl]-2-fluoro-5-[(5-oxo-1,2,3,4,5,6-hexahydropyrido[2,3-d]pyridazin-8-yl)methyl]benzamide] | – |
| 1.6 | O=C(c1ccc2cc[nH]c2c1)N1CCN(C(=O)c2cc(Cc3n[nH]c(=O)c4c3NCCC4)ccc2F)CC1 [Example 611, 8-(4-fluoro-3-{[4-(1H-indol-6-ylcarbonyl)piperazin-1-yl]carbonyl}benzyl)-2,3,4,6-tetrahydropyrido[2,3-d]pyridazin-5(1H)-one] | – |
| 1.5 | O=C(NC1CCN(C(=O)c2cc(Cc3n[nH]c(=O)c4c3NCCC4)ccc2F)CC1)c1cccnc1 [Example 747, N-(1-{2-fluoro-5-[(5-oxo-1,2,3,4,5,6-hexahydropyrido[2,3-d]pyridazin-8-yl)methyl]benzoyl}piperidin-4-yl)nicotinamide] | – |
| 1.4 | O=C(NC1CCN(C(=O)c2cc(Cc3n[nH]c(=O)c4c3NCCC4)ccc2F)CC1)c1ccc2cn[nH]c2c1 [Example 749, N-(1-{2-fluoro-5-[(5-oxo-1,2,3,4,5,6-hexahydropyrido[2,3-d]pyridazin-8-yl)methyl]benzoyl}piperidin-4-yl)-1H-indazole-6-carboxamide] | – |
| 1.3 | O=C(c1ccc2ccccc2n1)N1CCN(C(=O)c2cc(Cc3n[nH]c(=O)c4c3CCCC4)ccc2F)CC1 [Example 739, 4-(4-fluoro-3-{[4-(quinolin-2-ylcarbonyl)piperazin-1-yl]carbonyl}benzyl)-5,6,7,8-tetrahydrophthalazin-1(2H)-one] | – |
| 1.1 | CCN(CC)C(=O)N1CCN(C(=O)c2cc(Cc3n[nH]c(=O)c4c3NCCC4)ccc2F)CC1 [Example 557, N,N-diethyl-4-{2-fluoro-5-[(5-oxo-1,2,3,4,5,6-hexahydropyrido[2,3-d]pyridazin-8-yl)methyl]benzoyl}piperazine-1-carboxamide] | – |
| 1 | CC(C)(C)C(=O)N1CCN(C(=O)c2cc(Cc3n[nH]c(=O)c4c3CCCC4)ccc2F)CC1 [Example 587, 4-(3-[4-(2,2-dimethylpropanoyl)piperazin-1-yl]carbonyl-4-fluorobenzyl)-5,6,7,8-tetrahydrophthalazin-1(2H)-one] | – |
| 0.7 | CCS(=O)(=O)N1CCN(C(=O)c2cc(Cc3n[nH]c(=O)c4c3NCCC4)ccc2F)CC1 [Example 594] | – |
| 0.7 | O=C(c1cc(Cc2n[nH]c(=O)c3c2NCCC3)ccc1F)N1CCN(C(=O)C2CCCC2)CC1 [Example 640] | – |
| 0.5 | O=C(COc1ccccc1)N1CCN(C(=O)c2cc(Cc3n[nH]c(=O)c4c3NCCC4)ccc2F)CC1 [Example 591, 8-(4-fluoro-3-{[4-(phenoxyacetyl)piperazin-1-yl]carbonyl}benzyl)-2,3,4,6-tetrahydropyrido[2,3-d]pyridazin-5(1H)-one] | – |
